# Results taken from ChEMBL document CHEMBL1201862, “PubChem BioAssay data set” (2004).
# Active and inactive are the calls of the source.
# Key:
# Streptococcus = assay: Luminescence Microorganism-Based Dose Response Follow up to Identify Compounds Cytotoxic to Streptococcus. [Related pubchem assays: 1677 (Project Summary), 1915, 1914, 1902 (Retest at Dose), 1900 (Counter Screen), 1662 (Primary HTS)]; format: functional, organism-based
# Beta Lactamase = Beta Lactamase (Pseudomonas aeruginosa, UniProt Q932Y6); assay: beta-lactamase reporter inhibitor potency, dose response, artefact control for TLR9-MyD88 binding inhibitor project, BLA reporter cells, FRET fluorescence (AID 588341); format: cell-based;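 also: cell based assay in CHO-K1 cells stably expressing beta-lactamase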
# Chain of Beta Lactamase (Q932Y6 whole entry): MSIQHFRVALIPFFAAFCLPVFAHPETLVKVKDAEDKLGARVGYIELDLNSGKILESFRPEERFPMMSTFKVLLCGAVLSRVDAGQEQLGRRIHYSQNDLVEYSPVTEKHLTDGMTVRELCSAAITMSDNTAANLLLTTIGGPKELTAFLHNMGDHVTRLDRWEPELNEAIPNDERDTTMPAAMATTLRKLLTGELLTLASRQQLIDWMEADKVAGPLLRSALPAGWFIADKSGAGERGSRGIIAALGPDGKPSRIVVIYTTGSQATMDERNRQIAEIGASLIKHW
# [1] = target: T1, Type-1 angiotensin II receptor (Homo sapiens, UniProt P30556); assay: AT1 receptor antagonists, dose response, selectivity assay for APJ receptor antagonist project, cell-based, uHTS hits (AID 463214); format: functional;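 also: antagonist potency against angiotensin II stimulated AT1 response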
# T1 sequence (P30556 whole entry): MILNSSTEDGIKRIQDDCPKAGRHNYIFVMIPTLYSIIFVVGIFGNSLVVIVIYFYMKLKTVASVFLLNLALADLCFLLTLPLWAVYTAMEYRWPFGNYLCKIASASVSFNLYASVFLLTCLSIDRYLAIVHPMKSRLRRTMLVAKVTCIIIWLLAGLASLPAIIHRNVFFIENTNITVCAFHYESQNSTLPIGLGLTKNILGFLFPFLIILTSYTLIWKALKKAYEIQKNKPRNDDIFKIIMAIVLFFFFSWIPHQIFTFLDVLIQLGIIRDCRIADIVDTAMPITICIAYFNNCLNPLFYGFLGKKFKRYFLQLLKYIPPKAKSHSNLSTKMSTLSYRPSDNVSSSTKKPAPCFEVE
# [2] = target: G-protein coupled receptor 35 (Homo sapiens, UniProt Q9HC97); assay: GPR35 antagonists blocking zaprinast-driven arrestin recruitment, primary screen, imaging, U2OS, beta-arrestin-GFP, zaprinast agonist (AID 2058); format: functional;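 also: antagonist potency meaning inhibition of agonist-induced arrestin redistribution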
# Chain of G-protein coupled receptor 35 (Q9HC97 whole entry): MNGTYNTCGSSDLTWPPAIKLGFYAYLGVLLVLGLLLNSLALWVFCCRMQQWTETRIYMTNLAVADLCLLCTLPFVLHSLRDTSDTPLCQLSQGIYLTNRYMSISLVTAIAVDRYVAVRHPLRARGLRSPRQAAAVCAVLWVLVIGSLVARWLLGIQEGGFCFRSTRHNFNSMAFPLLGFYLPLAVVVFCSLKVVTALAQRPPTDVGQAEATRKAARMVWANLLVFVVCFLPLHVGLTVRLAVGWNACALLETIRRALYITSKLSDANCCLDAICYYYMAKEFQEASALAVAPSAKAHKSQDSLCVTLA
# [3] = Luminescence Cell-Based Dose Response HTS to Identify Inhibitors of 5'UTR Stem-Loop Driven Prion Protein mRNA Translation in H4 Neuroglioblastoma Cells. [Related pubchem assays: 1827 (Project Summary), 1813 (Primary HTS)]; format: functional
# [4] = target: T2, High affinity choline transporter 1 (Homo sapiens, UniProt Q9GZV3); assay: CHT inhibitors, dose response, cell-based, 5-point CRC, membrane potential dye (AID 504840); format: functional
# T2 sequence (Q9GZV3 whole entry): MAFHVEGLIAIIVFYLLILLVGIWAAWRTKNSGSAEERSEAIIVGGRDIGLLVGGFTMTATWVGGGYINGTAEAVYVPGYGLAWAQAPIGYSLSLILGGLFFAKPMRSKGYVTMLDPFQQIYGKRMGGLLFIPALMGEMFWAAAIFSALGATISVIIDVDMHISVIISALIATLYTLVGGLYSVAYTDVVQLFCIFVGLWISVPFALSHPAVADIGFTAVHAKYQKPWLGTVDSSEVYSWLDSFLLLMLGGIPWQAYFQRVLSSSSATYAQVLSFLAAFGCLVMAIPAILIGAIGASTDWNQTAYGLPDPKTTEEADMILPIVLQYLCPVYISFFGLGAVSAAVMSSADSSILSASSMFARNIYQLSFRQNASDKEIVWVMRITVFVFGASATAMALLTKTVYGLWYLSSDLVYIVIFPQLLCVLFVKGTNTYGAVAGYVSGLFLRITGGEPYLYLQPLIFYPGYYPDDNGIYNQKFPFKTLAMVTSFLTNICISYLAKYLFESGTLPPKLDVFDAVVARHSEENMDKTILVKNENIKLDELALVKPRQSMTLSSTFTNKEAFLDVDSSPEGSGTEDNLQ
# Fatty acid synthase [5] = target: T3, Fatty acid synthase (Homo sapiens, UniProt P49327); assay: FAS thioesterase domain inhibitors, dose response, biochemical, endpoint fluorescence intensity, uHTS hits (AID 624327); format: functional;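 also: fluorescence from hydrolysis of an O-methyl fluorescein acyl ester substrate by the enzyme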
# T3 sequence (P49327 whole entry, the tested form may be a part): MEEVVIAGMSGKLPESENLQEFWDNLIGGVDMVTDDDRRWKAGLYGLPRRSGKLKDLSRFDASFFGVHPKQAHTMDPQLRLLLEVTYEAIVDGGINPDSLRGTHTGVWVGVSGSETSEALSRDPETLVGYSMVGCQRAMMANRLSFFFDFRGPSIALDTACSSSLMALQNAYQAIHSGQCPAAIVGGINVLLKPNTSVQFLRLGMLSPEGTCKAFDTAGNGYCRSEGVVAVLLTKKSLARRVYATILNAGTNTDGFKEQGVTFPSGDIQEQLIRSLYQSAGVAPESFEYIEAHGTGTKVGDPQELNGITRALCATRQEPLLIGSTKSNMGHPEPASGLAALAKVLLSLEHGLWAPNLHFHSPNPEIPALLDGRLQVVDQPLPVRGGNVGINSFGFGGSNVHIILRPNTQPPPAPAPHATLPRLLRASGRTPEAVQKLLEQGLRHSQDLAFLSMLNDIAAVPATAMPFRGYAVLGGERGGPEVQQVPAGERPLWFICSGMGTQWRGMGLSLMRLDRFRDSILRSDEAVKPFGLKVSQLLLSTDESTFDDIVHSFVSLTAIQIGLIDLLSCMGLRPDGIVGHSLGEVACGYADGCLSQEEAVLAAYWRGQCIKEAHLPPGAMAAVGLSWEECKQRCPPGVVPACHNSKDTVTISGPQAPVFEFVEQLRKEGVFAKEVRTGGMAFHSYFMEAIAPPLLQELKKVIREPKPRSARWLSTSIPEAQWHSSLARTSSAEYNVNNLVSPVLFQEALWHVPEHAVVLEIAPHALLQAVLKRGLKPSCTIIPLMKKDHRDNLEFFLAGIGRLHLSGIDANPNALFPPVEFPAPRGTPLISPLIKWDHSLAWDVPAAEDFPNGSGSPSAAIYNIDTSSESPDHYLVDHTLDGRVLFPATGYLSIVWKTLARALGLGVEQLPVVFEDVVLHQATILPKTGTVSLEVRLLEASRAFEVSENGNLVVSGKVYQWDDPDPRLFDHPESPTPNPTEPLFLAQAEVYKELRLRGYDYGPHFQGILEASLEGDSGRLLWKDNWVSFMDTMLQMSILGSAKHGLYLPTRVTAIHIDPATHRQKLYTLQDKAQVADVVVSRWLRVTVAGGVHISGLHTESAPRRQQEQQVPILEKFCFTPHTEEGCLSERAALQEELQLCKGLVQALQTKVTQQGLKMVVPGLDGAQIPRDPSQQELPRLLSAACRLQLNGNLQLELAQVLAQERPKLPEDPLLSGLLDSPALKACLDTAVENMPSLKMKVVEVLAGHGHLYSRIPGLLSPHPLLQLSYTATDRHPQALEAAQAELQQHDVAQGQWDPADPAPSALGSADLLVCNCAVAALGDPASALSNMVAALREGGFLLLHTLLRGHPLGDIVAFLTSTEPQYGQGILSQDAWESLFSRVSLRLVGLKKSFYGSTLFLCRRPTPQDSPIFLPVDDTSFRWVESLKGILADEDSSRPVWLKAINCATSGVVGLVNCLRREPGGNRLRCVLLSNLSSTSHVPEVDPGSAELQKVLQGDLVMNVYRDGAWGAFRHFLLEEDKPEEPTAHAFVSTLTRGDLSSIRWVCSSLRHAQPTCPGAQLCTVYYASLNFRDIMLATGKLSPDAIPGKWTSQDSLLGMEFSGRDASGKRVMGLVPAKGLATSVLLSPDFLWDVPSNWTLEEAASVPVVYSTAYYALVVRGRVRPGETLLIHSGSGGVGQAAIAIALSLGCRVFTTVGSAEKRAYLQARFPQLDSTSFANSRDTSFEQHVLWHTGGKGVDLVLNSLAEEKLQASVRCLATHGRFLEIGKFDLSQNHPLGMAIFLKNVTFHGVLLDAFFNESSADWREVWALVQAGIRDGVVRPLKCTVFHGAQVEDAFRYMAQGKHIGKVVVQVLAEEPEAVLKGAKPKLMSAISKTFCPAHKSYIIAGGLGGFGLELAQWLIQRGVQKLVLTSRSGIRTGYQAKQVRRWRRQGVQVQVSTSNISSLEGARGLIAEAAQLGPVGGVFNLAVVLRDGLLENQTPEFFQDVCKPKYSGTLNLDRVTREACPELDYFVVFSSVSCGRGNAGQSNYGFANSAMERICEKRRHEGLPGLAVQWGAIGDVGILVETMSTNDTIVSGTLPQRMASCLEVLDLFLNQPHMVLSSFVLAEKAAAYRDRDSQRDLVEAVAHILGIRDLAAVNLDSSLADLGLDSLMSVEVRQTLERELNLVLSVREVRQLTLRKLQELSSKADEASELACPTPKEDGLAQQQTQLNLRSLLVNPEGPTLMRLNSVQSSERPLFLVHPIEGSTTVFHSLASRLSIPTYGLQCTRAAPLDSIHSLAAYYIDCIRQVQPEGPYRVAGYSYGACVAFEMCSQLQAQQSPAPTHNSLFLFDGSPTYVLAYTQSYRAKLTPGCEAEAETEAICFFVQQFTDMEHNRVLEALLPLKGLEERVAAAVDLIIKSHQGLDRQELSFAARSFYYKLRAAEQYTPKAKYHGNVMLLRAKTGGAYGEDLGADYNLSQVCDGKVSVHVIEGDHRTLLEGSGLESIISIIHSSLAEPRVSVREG
# CHO = assay: cytotoxicity in TLR9-MyD88 CHO cells, dose response, cytotoxicity control for TLR9-MyD88 binding inhibitor project, cell-based, luminescence (AID 588339); format: functional, hamster; conditions: Cricetulus griseus;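 also: CHO cells stably coexpressing TLR9 and MyD88 fusions from primary screen; compound exposure lasted 48 hours before viability readout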
# Fatty acid synthase [6] = target: T3, Fatty acid synthase; assay: FAS thioesterase domain inhibitors, dose response, biochemical, kinetic fluorescence intensity (AID 624326); format: functional;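 also: rate of fluorescence rise from hydrolysis of a fluorogenic O-methyl fluorescein ester substrate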
# [7] = target: T4, Apoptotic protease-activating factor 1 (Homo sapiens, UniProt O14727); format: functional
# T4 sequence (O14727 whole entry): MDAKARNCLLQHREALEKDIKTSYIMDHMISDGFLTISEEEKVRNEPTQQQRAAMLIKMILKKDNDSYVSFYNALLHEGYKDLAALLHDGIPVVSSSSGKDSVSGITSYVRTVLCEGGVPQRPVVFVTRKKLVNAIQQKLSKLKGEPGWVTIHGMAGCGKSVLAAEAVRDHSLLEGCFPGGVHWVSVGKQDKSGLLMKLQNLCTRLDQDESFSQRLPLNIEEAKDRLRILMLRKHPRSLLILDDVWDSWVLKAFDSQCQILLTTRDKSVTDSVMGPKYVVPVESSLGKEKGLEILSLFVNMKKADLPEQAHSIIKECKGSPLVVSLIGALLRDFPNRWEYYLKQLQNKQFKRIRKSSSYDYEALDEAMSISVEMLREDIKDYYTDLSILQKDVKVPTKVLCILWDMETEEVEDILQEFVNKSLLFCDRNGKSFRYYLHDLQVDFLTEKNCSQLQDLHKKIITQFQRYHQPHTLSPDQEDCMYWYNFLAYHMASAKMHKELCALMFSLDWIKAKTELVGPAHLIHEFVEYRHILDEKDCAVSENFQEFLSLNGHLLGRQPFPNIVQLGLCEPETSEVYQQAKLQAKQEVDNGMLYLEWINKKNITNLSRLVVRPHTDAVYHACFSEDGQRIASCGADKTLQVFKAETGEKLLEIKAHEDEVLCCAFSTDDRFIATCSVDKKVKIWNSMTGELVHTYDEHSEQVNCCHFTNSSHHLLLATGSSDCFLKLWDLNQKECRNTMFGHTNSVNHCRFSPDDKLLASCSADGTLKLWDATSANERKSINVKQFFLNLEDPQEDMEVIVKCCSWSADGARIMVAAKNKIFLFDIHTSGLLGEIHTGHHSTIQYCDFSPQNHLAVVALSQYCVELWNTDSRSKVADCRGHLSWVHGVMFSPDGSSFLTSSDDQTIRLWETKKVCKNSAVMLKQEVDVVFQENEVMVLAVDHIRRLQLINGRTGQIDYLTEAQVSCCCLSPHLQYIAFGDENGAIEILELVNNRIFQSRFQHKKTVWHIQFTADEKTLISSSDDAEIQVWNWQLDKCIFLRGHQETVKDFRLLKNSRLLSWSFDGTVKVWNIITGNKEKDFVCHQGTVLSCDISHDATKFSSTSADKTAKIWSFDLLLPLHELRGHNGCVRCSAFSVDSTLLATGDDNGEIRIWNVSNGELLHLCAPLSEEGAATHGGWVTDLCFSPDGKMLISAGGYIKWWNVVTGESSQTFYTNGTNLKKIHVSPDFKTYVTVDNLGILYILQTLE
# [8] = system: Streptococcus sp. 'group A'; assay: growth inhibition of control SK(-) GAS strain, dose response, counter-screen for streptokinase expression inhibitor project, luminescence, kanamycin, BacTiterGlo, confirmation (AID 1900); format: functional, organism-based
# [9] = HepG2 cell cytotoxicity, dose response, cytotoxicity control, ATP luminescence, cherry-pick, activator set 2 (AID 1053143); format: functional, cell-based
smiles,measurement,setting,value
CCC1CCCCN1S(=O)(=O)c1ccc(NC(=O)c2nc(S(C)(=O)=O)ncc2Cl)cc1 (configuration not stated),EC50,Streptococcus,16.5 µM (active)
same,IC50,Beta Lactamase,11.1 µM (inactive)
same,IC50,[1],5.9 µM (active)
same,IC50,[2],3.23 µM (active)
same,EC50,[3],11.8 µM (active)
same,IC50,[4],15.8 µM (active)
same,IC50,Fatty acid synthase [5],5.75 µM (active)
same,IC50,CHO,1.91 µM (active)
same,IC50,Fatty acid synthase [6],4.03 µM (active)
CCCC[n+]1ccn(C2=C([N-]S(=O)(=O)c3ccc(Cl)cc3)C(=O)c3ccccc3C2=O)c1,IC50,[7],19.3 µM (active)
CC(=O)c1cccc2c1N=C(c1[nH]c3ccccc3c1O)C2=O,EC50,[8],3.8 µM (active)
same,AC50,[9],22.4 µM (active)
